Measurements: ChEMBL document CHEMBL1201862, “PubChem BioAssay data set” (2004)
Activity calls are given as the source filed them.

What was measured:
Streptokinase A = biological target: T1, Streptokinase A (Streptococcus pyogenes serotype M1, UniProt P10520); assay: viability-normalized secreted streptokinase activity reduction – plasminogen activation absorbance, OD405, dose response (AID 1914); type: functional, Streptococcus pyogenes M1 GAS;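 further: secreted streptokinase activity via plasminogen activation per viability signal from cell pellet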
T1 sequence (P10520 whole entry): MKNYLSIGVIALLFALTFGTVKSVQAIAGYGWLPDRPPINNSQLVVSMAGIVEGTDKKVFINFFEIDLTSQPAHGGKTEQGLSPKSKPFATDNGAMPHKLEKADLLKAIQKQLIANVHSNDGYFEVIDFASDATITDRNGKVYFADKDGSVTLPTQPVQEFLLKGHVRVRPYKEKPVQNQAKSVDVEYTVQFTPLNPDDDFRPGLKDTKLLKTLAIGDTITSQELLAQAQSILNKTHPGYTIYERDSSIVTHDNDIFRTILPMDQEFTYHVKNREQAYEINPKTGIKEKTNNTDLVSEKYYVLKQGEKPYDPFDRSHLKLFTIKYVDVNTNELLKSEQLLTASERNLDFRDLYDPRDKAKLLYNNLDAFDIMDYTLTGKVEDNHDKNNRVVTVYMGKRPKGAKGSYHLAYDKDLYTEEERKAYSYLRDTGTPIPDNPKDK

Protein RecA = biological target: T2, Protein RecA (Mycobacterium tuberculosis, UniProt P9WHJ3); assay: Fluorescence Cell-Free Homogeneous Dose Retest to Identify Inhibitors of RecA-Intein Splicing Activity. [Related pubchem assays (depositor defined):AID2097, AID2223, AID489010, AID492950]; type: functional
T2 sequence (P9WHJ3 whole entry): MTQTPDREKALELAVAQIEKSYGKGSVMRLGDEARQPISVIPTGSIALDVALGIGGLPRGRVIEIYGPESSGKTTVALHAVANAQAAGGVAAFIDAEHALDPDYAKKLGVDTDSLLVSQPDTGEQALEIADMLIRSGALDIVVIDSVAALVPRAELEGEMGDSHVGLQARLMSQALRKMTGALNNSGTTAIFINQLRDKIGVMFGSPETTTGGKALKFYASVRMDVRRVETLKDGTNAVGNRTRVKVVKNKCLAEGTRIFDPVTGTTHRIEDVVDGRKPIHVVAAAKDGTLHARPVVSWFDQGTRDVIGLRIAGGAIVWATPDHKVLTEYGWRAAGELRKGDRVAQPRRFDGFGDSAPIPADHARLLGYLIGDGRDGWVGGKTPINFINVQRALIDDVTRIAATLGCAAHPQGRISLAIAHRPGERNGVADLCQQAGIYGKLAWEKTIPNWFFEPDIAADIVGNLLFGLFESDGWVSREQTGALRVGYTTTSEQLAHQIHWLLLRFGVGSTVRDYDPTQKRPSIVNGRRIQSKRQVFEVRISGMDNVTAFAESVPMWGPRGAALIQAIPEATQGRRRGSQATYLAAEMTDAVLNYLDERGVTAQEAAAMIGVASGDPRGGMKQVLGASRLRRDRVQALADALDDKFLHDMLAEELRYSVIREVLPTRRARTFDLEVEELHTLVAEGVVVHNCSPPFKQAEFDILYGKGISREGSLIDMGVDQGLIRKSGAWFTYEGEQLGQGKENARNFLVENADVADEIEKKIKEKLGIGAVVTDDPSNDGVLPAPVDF

[1] = biological target: T3, Long-chain-fatty-acid--AMP ligase FadD28 (Mycobacterium tuberculosis, UniProt P9WQ59); assay: Fluorescence polarization aasay to screen for inhibitors that compete for the binding of FadD28 to a bisubstrate Measured in Biochemical System Using Plate Reader - 2147-01_Inhibitor_Dose_CherryPick_Activity.; type: functional, Mycobacterium tuberculosis H37Rv
T3 sequence (P9WQ59 whole entry): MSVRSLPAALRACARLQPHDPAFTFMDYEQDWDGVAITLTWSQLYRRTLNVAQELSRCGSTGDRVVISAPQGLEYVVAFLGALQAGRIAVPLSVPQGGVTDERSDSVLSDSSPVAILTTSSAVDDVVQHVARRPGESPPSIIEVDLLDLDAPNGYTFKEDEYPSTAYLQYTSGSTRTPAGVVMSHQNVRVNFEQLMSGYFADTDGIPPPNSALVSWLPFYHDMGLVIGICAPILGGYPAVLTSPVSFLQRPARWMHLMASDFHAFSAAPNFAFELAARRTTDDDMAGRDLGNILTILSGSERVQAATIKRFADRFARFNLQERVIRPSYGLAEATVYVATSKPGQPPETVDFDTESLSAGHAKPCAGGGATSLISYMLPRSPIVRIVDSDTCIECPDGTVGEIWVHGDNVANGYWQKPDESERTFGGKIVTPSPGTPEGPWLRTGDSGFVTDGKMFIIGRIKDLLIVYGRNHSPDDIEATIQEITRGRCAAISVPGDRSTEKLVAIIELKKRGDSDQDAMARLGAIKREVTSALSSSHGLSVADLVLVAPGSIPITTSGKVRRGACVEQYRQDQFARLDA

[2] = biological target: T4, Short transient receptor potential channel 4 (Mus musculus, UniProt Q9QUQ5); assay: calcium entry via TRPC4 opening agents – cell-based, HEK293 TRPC4/mu-opioid, Fluo-4 calcium, dose response (AID 434937); type: functional
T4 sequence (Q9QUQ5 whole entry): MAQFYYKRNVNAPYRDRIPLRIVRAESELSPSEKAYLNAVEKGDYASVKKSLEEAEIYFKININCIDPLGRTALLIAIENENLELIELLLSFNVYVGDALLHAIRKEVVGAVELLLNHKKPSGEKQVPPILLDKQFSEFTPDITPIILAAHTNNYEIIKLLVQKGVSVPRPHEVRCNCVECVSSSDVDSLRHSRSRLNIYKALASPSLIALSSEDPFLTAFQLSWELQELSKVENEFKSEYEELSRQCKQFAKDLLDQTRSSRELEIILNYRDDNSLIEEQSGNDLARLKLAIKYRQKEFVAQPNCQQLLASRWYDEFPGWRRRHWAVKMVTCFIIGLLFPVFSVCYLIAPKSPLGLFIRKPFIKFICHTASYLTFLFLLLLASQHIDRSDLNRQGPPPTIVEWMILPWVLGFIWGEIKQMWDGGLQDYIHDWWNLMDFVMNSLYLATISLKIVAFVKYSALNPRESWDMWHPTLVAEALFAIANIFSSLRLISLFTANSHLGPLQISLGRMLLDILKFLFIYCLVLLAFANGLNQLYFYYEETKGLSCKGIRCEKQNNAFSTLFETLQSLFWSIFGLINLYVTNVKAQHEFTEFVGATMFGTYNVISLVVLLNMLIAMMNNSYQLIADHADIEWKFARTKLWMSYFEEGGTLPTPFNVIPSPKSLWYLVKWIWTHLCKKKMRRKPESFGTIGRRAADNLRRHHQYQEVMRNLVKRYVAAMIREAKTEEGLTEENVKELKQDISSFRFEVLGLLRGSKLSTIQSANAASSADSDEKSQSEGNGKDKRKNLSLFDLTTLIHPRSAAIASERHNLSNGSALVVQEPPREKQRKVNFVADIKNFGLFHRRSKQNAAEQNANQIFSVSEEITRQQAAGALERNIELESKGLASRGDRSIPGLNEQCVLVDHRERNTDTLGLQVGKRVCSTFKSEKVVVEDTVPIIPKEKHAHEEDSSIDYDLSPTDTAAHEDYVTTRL

Row | SMILES | EC50 (Streptokinase A) | EC50 (Protein RecA) | AC50 [1] | EC50 [2]
1 | O=C(Nc1cccc(NC(=O)c2ccccc2Cl)c1)c1ccc([N+](=O)[O-])o1 | > 150 µM (not active) |  |  | 
2 | COc1ccc(CC2=CC(=O)c3ccccc3C2=O)cc1 | > 150 µM (not active) | 3.37 µM (active) |  | 
3 | c1coc(-c2nnc(-c3ccco3)nn2)c1 |  | 7.01 µM (active) |  | 
4 | Cn1c(O)c(/C=N/NC(=O)c2cc3ccccc3cc2O)c2ccccc21 |  |  | > 100 µM (inactive) | 5.96 µM (active)
